Source: patent US4358441A, “Nicotinic derivatives of glucosamine and related pharmaceutical compositions” (Laboratorio Guidotti & C. S.p.A., priority 1980, dated 1982)

Experiments:
[1] = test system: plasma levels of triglycerides; test: Effect of oral administration on plasma levels of triglycerides in the empty rat; format: in vivo, rat (COBS CD (SD) BR male); details: for Percent variations of plasma triglycerides with respect to the controls / Percent variations of plasma triglycerides with respect to the control: empty rat; for Time within which the effect on triglycerides disappears: rat; for Percent variations of plasma triglycerides with respect to the control: Table 5, 100 mg/kg oral referred to nicotinic acid
[2] = test system: plasma levels of free glycerol; test: Effect of oral administration on plasma levels of free glycerol in the empty rat; format: in vivo, rat (COBS CD (SD) BR male); details: for Percent variations of plasma free glycerol with respect to the controls: empty rat; for Activity on free glycerol: 30 mg/kg oral; for Activity on free glycerol / Time within which the effect on free glycerol disappears: rat; for Time within which the effect on free glycerol disappears: 100 mg/kg oral
plasma levels of FFA = test: Effect of oral administration on plasma levels of FFA in the empty rat; details: for Percent variations of plasma FFA with respect to the controls / Percent variations of plasma FFA with respect to the control: empty rat; for Time within which the effect on FFA disappears: 100 mg/kg oral, rat; for Percent variations of plasma FFA with respect to the control: Table 5, 100 mg/kg oral referred to nicotinic acid
[3] = test system: plasma levels of cholesterol; test: Effect of oral administration on plasma levels of cholesterol in the empty rat; format: in vivo, rat (COBS CD (SD) BR male); details: for Percent variations of plasma cholesterol with respect to the controls: 100 mg/kg oral referred to nicotinic acid; for Percent variations of plasma cholesterol with respect to the controls / Percent variations of plasma cholesterol with respect to the control: empty rat; for Lowering of cholesterolemy: 100 mg/kg oral, rat; for Percent variations of plasma cholesterol with respect to the control: Table 5, 100 mg/kg oral referred to nicotinic acid
Solubility = format: physicochemical
[4] = 30 mg/kg oral referred to nicotinic acid, 1 h
[5] = 30 mg/kg oral referred to nicotinic acid, 2 h
[6] = 30 mg/kg oral referred to nicotinic acid, 4 h
[7] = 30 mg/kg oral referred to nicotinic acid, 6 h
[8] = 100 mg/kg oral referred to nicotinic acid, 2 h
[9] = 100 mg/kg oral referred to nicotinic acid, 4 h
[10] = 100 mg/kg oral referred to nicotinic acid, 6 h
[11] = 100 mg/kg oral referred to nicotinic acid, 8 h
[12] = 100 mg/kg oral referred to nicotinic acid, 10 h
[13] = 100 mg/kg oral referred to nicotinic acid, 16 h
[14] = 100 mg/kg oral referred to nicotinic acid, 24 h

SMILES: O=C(OCC(COC(=O)c1cccnc1)(COC(=O)c1cccnc1)COC(=O)c1cccnc1)c1cccnc1 [NICERITROLE, pentaerithritol-tetranicotinate]
- Percent variations of plasma triglycerides with respect to the controls [1, 4]: -45%
- Percent variations of plasma triglycerides with respect to the controls [1, 5]: -27%
- Percent variations of plasma triglycerides with respect to the controls [1, 6]: +13%
- Percent variations of plasma triglycerides with respect to the controls [1, 7]: -6%
- Time within which the effect on triglycerides disappears ([1]; 30 mg/kg oral): ≤ 2 h
- Percent variations of plasma triglycerides with respect to the controls [1, 8]: -41%
- Percent variations of plasma triglycerides with respect to the controls [1, 9]: -56%
- Percent variations of plasma triglycerides with respect to the controls [1, 10]: -63%
- Percent variations of plasma triglycerides with respect to the controls [1, 11]: -30%
- Percent variations of plasma triglycerides with respect to the controls [1, 12]: +9%
- Percent variations of plasma triglycerides with respect to the controls [1, 13]: -3%
- Percent variations of plasma triglycerides with respect to the controls [1, 14]: +5%
- Time within which the effect on triglycerides disappears ([1]; 100 mg/kg oral): within the eighth hour
- Percent variations of plasma free glycerol with respect to the controls [2, 4]: -77%
- Percent variations of plasma free glycerol with respect to the controls [2, 5]: -9%
- Percent variations of plasma free glycerol with respect to the controls [2, 6]: -4%
- Percent variations of plasma free glycerol with respect to the controls [2, 7]: +11%
- Activity on free glycerol [2]: active only after 1 hour
- Percent variations of plasma free glycerol with respect to the controls [2, 8]: -61%
- Percent variations of plasma free glycerol with respect to the controls [2, 9]: -34%
- Percent variations of plasma free glycerol with respect to the controls [2, 10]: +17%
- Percent variations of plasma free glycerol with respect to the controls [2, 11]: +11%
- Percent variations of plasma free glycerol with respect to the controls [2, 12]: +4%
- Percent variations of plasma free glycerol with respect to the controls [2, 13]: +13%
- Percent variations of plasma free glycerol with respect to the controls [2, 14]: +3%
- Time within which the effect on free glycerol disappears [2]: within the fourth hour
- Percent variations of plasma FFA with respect to the controls (plasma levels of FFA; [4]): -87%
- Percent variations of plasma FFA with respect to the controls (plasma levels of FFA; [5]): -18%
- Percent variations of plasma FFA with respect to the controls (plasma levels of FFA; [6]): +9%
- Percent variations of plasma FFA with respect to the controls (plasma levels of FFA; [7]): +8%
- Percent variations of plasma FFA with respect to the controls (plasma levels of FFA; [8]): -70%
- Percent variations of plasma FFA with respect to the controls (plasma levels of FFA; [9]): -43%
- Percent variations of plasma FFA with respect to the controls (plasma levels of FFA; [10]): +27%
- Percent variations of plasma FFA with respect to the controls (plasma levels of FFA; [11]): +10%
- Percent variations of plasma FFA with respect to the controls (plasma levels of FFA; [12]): -2%
- Percent variations of plasma FFA with respect to the controls (plasma levels of FFA; [13]): +6%
- Percent variations of plasma FFA with respect to the controls (plasma levels of FFA; [14]): -8%
- Time within which the effect on FFA disappears (plasma levels of FFA): ≤ 6 h
- Percent variations of plasma cholesterol with respect to the controls ([3]; 4 h): -2%
- Percent variations of plasma cholesterol with respect to the controls ([3]; 6 h): -7%
- Percent variations of plasma cholesterol with respect to the controls ([3]; 8 h): 0%
- Percent variations of plasma cholesterol with respect to the controls ([3]; 10 h): -10%
- Percent variations of plasma cholesterol with respect to the controls ([3]; 16 h): -17%
- Percent variations of plasma cholesterol with respect to the controls ([3]; 24 h): -14%
- Lowering of cholesterolemy [3]: never significant

SMILES: O=C(OC[C@H](OC(=O)c1cccnc1)[C@@H](OC(=O)c1cccnc1)[C@H](OC(=O)c1cccnc1)[C@@H](COC(=O)c1cccnc1)OC(=O)c1cccnc1)c1cccnc1 [SORBINICATE, D-glucitol hexanicotinate]
- Percent variations of plasma triglycerides with respect to the controls [1, 4]: -42%
- Percent variations of plasma triglycerides with respect to the controls [1, 5]: -16%
- Percent variations of plasma triglycerides with respect to the controls [1, 6]: +6%
- Percent variations of plasma triglycerides with respect to the controls [1, 7]: -3%
- Time within which the effect on triglycerides disappears ([1]; 30 mg/kg oral): ≤ 2 h
- Percent variations of plasma triglycerides with respect to the controls [1, 8]: -61%
- Percent variations of plasma triglycerides with respect to the controls [1, 9]: -46%
- Percent variations of plasma triglycerides with respect to the controls [1, 10]: -55%
- Percent variations of plasma triglycerides with respect to the controls [1, 11]: -5%
- Percent variations of plasma triglycerides with respect to the controls [1, 12]: +9%
- Percent variations of plasma triglycerides with respect to the controls [1, 13]: -3%
- Percent variations of plasma triglycerides with respect to the controls [1, 14]: -25%
- Time within which the effect on triglycerides disappears ([1]; 100 mg/kg oral): within the eighth hour
- Percent variations of plasma free glycerol with respect to the controls [2, 4]: -59%
- Percent variations of plasma free glycerol with respect to the controls [2, 5]: -27%
- Percent variations of plasma free glycerol with respect to the controls [2, 6]: +2%
- Percent variations of plasma free glycerol with respect to the controls [2, 7]: -7%
- Activity on free glycerol [2]: active only after 1 hour
- Percent variations of plasma free glycerol with respect to the controls [2, 8]: -70%
- Percent variations of plasma free glycerol with respect to the controls [2, 9]: -3%
- Percent variations of plasma free glycerol with respect to the controls [2, 10]: +3%
- Percent variations of plasma free glycerol with respect to the controls [2, 11]: +20%
- Percent variations of plasma free glycerol with respect to the controls [2, 12]: +8%
- Percent variations of plasma free glycerol with respect to the controls [2, 13]: -1%
- Percent variations of plasma free glycerol with respect to the controls [2, 14]: -1%
- Time within which the effect on free glycerol disappears [2]: within the fourth hour
- Percent variations of plasma FFA with respect to the controls (plasma levels of FFA; [4]): -56%
- Percent variations of plasma FFA with respect to the controls (plasma levels of FFA; [5]): -14%
- Percent variations of plasma FFA with respect to the controls (plasma levels of FFA; [6]): +13%
- Percent variations of plasma FFA with respect to the controls (plasma levels of FFA; [7]): -9%
- Percent variations of plasma FFA with respect to the controls (plasma levels of FFA; [8]): -72%
- Percent variations of plasma FFA with respect to the controls (plasma levels of FFA; [9]): -1%
- Percent variations of plasma FFA with respect to the controls (plasma levels of FFA; [10]): +6%
- Percent variations of plasma FFA with respect to the controls (plasma levels of FFA; [11]): +4%
- Percent variations of plasma FFA with respect to the controls (plasma levels of FFA; [12]): -5%
- Percent variations of plasma FFA with respect to the controls (plasma levels of FFA; [13]): +6%
- Percent variations of plasma FFA with respect to the controls (plasma levels of FFA; [14]): +2%
- Time within which the effect on FFA disappears (plasma levels of FFA): ≤ 4 h
- Percent variations of plasma cholesterol with respect to the controls ([3]; 4 h): -14%
- Percent variations of plasma cholesterol with respect to the controls ([3]; 6 h): -15%
- Percent variations of plasma cholesterol with respect to the controls ([3]; 8 h): -7%
- Percent variations of plasma cholesterol with respect to the controls ([3]; 10 h): -15%
- Percent variations of plasma cholesterol with respect to the controls ([3]; 16 h): -13%
- Percent variations of plasma cholesterol with respect to the controls ([3]; 24 h): -9%
- Lowering of cholesterolemy [3]: at the tenth hour only

SMILES: N[C@H]1C(OC(=O)c2cccnc2)O[C@H](COC(=O)c2cccnc2)[C@@H](OC(=O)c2cccnc2)[C@@H]1OC(=O)c1cccnc1 (stereo partly drawn) [glucosamine tetranicotinate, Glucosamine tetranicotinate]
- Percent variations of plasma triglycerides with respect to the control ([1]; 2 h): -54%
- Percent variations of plasma triglycerides with respect to the control ([1]; 4 h): -53%
- Percent variations of plasma triglycerides with respect to the control ([1]; 8 h): -82%
- Solubility (Solubility): soluble in the common organic solvents and in acid solutions
- Percent variations of plasma FFA with respect to the control (plasma levels of FFA; 2 h): -70%
- Percent variations of plasma FFA with respect to the control (plasma levels of FFA; 4 h): -48%
- Percent variations of plasma FFA with respect to the control (plasma levels of FFA; 8 h): -65%
- Percent variations of plasma cholesterol with respect to the control ([3]; 4 h): -16%
- Percent variations of plasma cholesterol with respect to the control ([3]; 8 h): -26%
- Percent variations of plasma cholesterol with respect to the control ([3]; 24 h): -59%

SMILES: O=C(N[C@H]1[C@@H](OC(=O)c2cccnc2)O[C@H](COC(=O)c2cccnc2)[C@@H](OC(=O)c2cccnc2)[C@@H]1OC(=O)c1cccnc1)c1cccnc1 [α, α-N-nicotinoyl-glucosamine tetranicotinate]
- Percent variations of plasma triglycerides with respect to the control ([1]; 2 h): -56%
- Percent variations of plasma triglycerides with respect to the control ([1]; 4 h): -68%
- Percent variations of plasma triglycerides with respect to the control ([1]; 8 h): -47%
- Solubility (Solubility): soluble in the common non-polar organic solvents
- Percent variations of plasma FFA with respect to the control (plasma levels of FFA; 2 h): -64%
- Percent variations of plasma FFA with respect to the control (plasma levels of FFA; 4 h): -13%
- Percent variations of plasma FFA with respect to the control (plasma levels of FFA; 8 h): -7%
- Percent variations of plasma cholesterol with respect to the control ([3]; 4 h): -4%
- Percent variations of plasma cholesterol with respect to the control ([3]; 8 h): -12%
- Percent variations of plasma cholesterol with respect to the control ([3]; 24 h): -44%

SMILES: O=C(N[C@H]1[C@H](OC(=O)c2cccnc2)O[C@H](COC(=O)c2cccnc2)[C@@H](OC(=O)c2cccnc2)[C@@H]1OC(=O)c1cccnc1)c1cccnc1 [β, β-N-nicotinoyl-glucosamine tetranicotinate]
- Percent variations of plasma triglycerides with respect to the control ([1]; 2 h): -53%
- Percent variations of plasma triglycerides with respect to the control ([1]; 4 h): -77%
- Percent variations of plasma triglycerides with respect to the control ([1]; 8 h): -69%
- Solubility (Solubility): slightly soluble in acetone, ethanol and chloroform, but soluble in dilute acids
- Percent variations of plasma FFA with respect to the control (plasma levels of FFA; 2 h): -67%
- Percent variations of plasma FFA with respect to the control (plasma levels of FFA; 4 h): -30%
- Percent variations of plasma FFA with respect to the control (plasma levels of FFA; 8 h): -44%
- Percent variations of plasma cholesterol with respect to the control ([3]; 4 h): -2%
- Percent variations of plasma cholesterol with respect to the control ([3]; 8 h): -17%
- Percent variations of plasma cholesterol with respect to the control ([3]; 24 h): -43%
